# Measurements as given in PubChem BioAssay AID732 (Emory University Molecular Libraries Screening Center, 2007).
# Activity calls are given as the source filed them. How the calls were made is not given here.
# Test system: in vivo angiogenesis, blood vessel count
# Assay: angiogenesis inhibition in living animals, in vivo study, HTS (AID 732);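 further: zebrafish embryos dosed at one day post fertilization; 0% = reference inhibitor and 100% = plate mean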
# Details: active compounds read low;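 tested at 30 µM in the well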
row,SMILES,vessel count % control
1,c1ccc2c(c1)CCCC2C1=NCCN1 (stereo not given),76% (inactive)
2,CCN1CCC[C@H]1CNC(=O)c1cc(S(N)(=O)=O)ccc1OC,89.7% (inactive)
3,Cc1c(CC(C)(C)C(=O)O)n(Cc2ccc(Cl)cc2)c2ccc(F)cc12,127% (inactive)
4,CC(C)NC[C@@H](O)COc1ccc(CC(N)=O)cc1,94.2% (inactive)
5,O=C(O)CCCCCC[C@H]1C(=O)NC(=O)N1CC[C@@H](O)C1CCCCC1,93.1% (inactive)
6,Nc1ccc(CCNc2ncnc3c2ncn3C2OC(CO)C(O)C2O)cc1 (stereo not given),110% (inactive)
7,CN(C)CCCN1c2ccccc2CCc2ccccc21,104% (inactive)
8,NC1CCc2cc(O)c(O)cc2C1 (stereo not given),94.8% (inactive)
9,CN1CCN(CCCN2c3ccccc3Sc3ccc(C(F)(F)F)cc32)CC1,105% (inactive)
10,CCCCC1C(=O)N(c2ccccc2)N(c2ccccc2)C1=O,93.9% (inactive)
11,CC(C)NC[C@H](O)COc1cccc2ccccc12,94.9% (inactive)
12,CCn1cnc2c(Nc3cccc(Cl)c3)nc(N[C@@H]3CCCC[C@@H]3N)nc21,88.4% (inactive)
13,CCCN1CCc2cc(O)cc3c2[C@H]1Cc1ccc(O)c(O)c1-3,114% (inactive)
14,FC(F)(F)c1ccccc1-n1ccnc1,93.4% (inactive)
15,CNCC(O)c1ccc(O)cc1 (stereo not given),131% (inactive)
16,O=C(OCCN1CCOCC1)C1(c2ccccc2)CCCCC1,91.6% (inactive)
17,NC(=O)COc1c(F)cc(SCCNS(=O)(=O)c2ccccc2)cc1F,116% (inactive)
18,CNCCCC12CCC(c3ccccc31)c1ccccc12,92.5% (inactive)
19,CN1CCN(CCCN2c3ccccc3Sc3ccc(Cl)cc32)CC1,68.9% (inactive)
20,COc1cc(/C=C(\C#N)C(=O)c2ccc(O)c(O)c2)cc(I)c1O,94.3% (inactive)
21,C[N+]1(C)C2CCC1CC(OC(=O)c1c[nH]c3ccccc13)C2 (stereo not given),99.8% (inactive)
22,NCCCCNS(=O)(=O)c1cccc2c(Cl)cccc12,107% (inactive)
23,CN=C(NC#N)NCCSCc1nc[nH]c1C,112% (inactive)
24,OC(CCN1CCCCC1)(c1ccccc1)C1CCCCC1 (stereo not given),98.5% (inactive)
25,COc1cc(C(O)CO)ccc1OS(=O)(=O)O (stereo not given),93.6% (inactive)

row,SMILES,vessel count % control
1,O=c1oc(Cl)c(Cl)c2ccccc12,104% (inactive)
2,CCC(NC(C)C)C(O)c1ccc(O)c(O)c1 (stereo not given),85.9% (inactive)
3,NC(CP(=O)(O)O)C(=O)O (stereo not given),103% (inactive)
4,NC(=O)CC[C@H](N)C(=O)O,104% (inactive)
5,CC(=O)OCC1=C(C(=O)O)N2C(=O)[C@@H](NC(=O)Cc3cccs3)[C@H]2SC1,132% (inactive)
6,C[N+](C)(CCCCCC[N+](C)(C)CCCN1C(=O)c2cccc3cccc(c23)C1=O)CCCN1C(=O)c2cccc3cccc(c23)C1=O,115% (inactive)
7,CC(C)COC(=O)OCN1C(=O)CN(CCN2CC(=O)N(COC(=O)OCC(C)C)C(=O)C2)CC1=O,104% (inactive)
8,Nc1cc(Cl)c(NC2=NCCN2)c(Cl)c1,114% (inactive)
9,CCn1nc(C(=O)O)c(=O)c2cc3c(cc21)OCO3,102% (inactive)
10,N[C@@H](Cc1cnc[nH]1)C(=O)O,107% (inactive)
11,Oc1[nH]c2ccccc2c1C1=Nc2ccc(Br)cc2/C1=N\OCCBr,79.9% (inactive)
12,CCC1(C)CC(=O)NC1=O (stereo not given),95.8% (inactive)
13,CC(C)C[C@H](NC(=O)C1OC1C(=O)O)C(=O)NCCCCN=C(N)N (stereo not given in full),108% (inactive)
14,COc1cc2c(cc1O)CC[C@@H]1[C@@H]2CC[C@]2(C)[C@@H](O)CC[C@@H]12,83.1% (inactive)
15,C=CC1(C)CC(=O)C2(O)C(C)(O1)C(OC(C)=O)C(O)C1C(C)(C)CCC(O)C12C (stereo not given),97% (inactive)
16,OCCN1CCN(CCCN2c3ccccc3Sc3ccc(Cl)cc32)CC1,99.2% (inactive)
17,Cc1cccc(C(=O)NCN2CCN(c3ccccc3C#N)CC2)c1,110% (inactive)
18,CN(C)[C@@H]1C(=O)C(C(N)=O)=C(O)[C@@]2(O)C(=O)C3=C(O)c4c(O)ccc(Cl)c4[C@@H](O)[C@H]3C[C@@H]12,87.7% (inactive)
19,Cc1ncc(CNC(=O)N(CCCl)N=O)c(N)n1,90.1% (inactive)
20,Cc1nc2sccn2c(=O)c1CCN1CCC(=C(c2ccc(F)cc2)c2ccc(F)cc2)CC1,68.8% (inactive)
21,C[C@]12C=CC(=O)C=C1CC[C@H]1[C@@H]3C[C@@H](O)[C@](O)(C(=O)CO)[C@@]3(C)C[C@H](O)[C@@]12F,129% (inactive)
22,NC1C=CC=C(C(=O)O)C1 (stereo not given),114% (inactive)
23,Cn1c(=O)c2c(nc(/C=C/c3cccc(Cl)c3)n2C)n(C)c1=O,72.9% (inactive)
24,COc1ccccc1OCC(O)CN1CCN(CC(=O)Nc2c(C)cccc2C)CC1 (stereo not given),97.9% (inactive)
25,CC(C(=O)O)c1ccc(CC2CCCC2=O)cc1 (stereo not given),113% (inactive)
